# Experimental data as given in publication PMC8110578, “Phenylethynylbenzyl-modified biguanides inhibit pancreatic cancer tumor growth” (Scientific Reports, 2021).
# Several values for one entry are separate records, joined by “and”; a condition that tells them apart may be missing. Equal entries are not always repeated.
# Legend:
# [1] = system: AH375 cells; assay: Tumor sphere formation, AH375 cells; type: cell-based, mouse; conditions: 24 h treatment
# [2] = U-tube experiment (partition across a bulk hydrophobic solvent); type: physicochemical; conditions: 250 µM on cis side; for Crossing to the trans-aqueous side of the U-tube (in words): up to 72 h; for Trans-side concentration, mean / Trans-side concentration, single replicates: 25°C
# Protocol: Figure 2 (A) Partition of compounds in an U-tube experiment. Concentration of biguanide on the trans-side of the U-tube at 48 h and 72 h at 25 °C, after addition of 250 µM of biguanide on the cis-side. (B) Variation in the internal pH of HPTS-containing EYPC liposomes. Intravesicular solution: 1 mM HPTS, 10 mM HEPES, and 100 mM NaCl, adjusted to pH = 7.4, and extravesicular solution: 10 mM HEPES and 100 mM NaCl, adjusted to pH = 7.4. Biguanidiums were injected after 50 s at 5 mM (50 mol% relative to the 10 mM EYPC concentration), a NaOH pulse was induced at 300 s, and the liposomes were lysed with Triton-X at 550 s. Each curve is the average of three independent measurements. (C) Fluorescence of safranin O in the EYPC liposomes. Biguanidium salts were injected at 5 mM (50 mol% relative to the 10 mM EYPC concentration) at 50 s. Each curve is the average of three independent measurements. […] Mitochondrial isolation was performed according to the previously reported protocol.
# Experimental. U-tube experiment was prepared by adding 800 µL of dichloromethane in a U-shaped tube as a representation of the hydrophobic lipid membrane. On the receiving end (trans side) of the tube was added 300 µL of distilled water while the other side (cis side) was filled with 300 µL of a 250 µM solution of the compound of interest at 25°C. At 48h and 72h, 100 µL aliquot of the trans side was diluted in 900 µL methanol and monitored by LCMS (292 m/z). Area under curve (AUC) was measured and fitted on a calibration curve.
# [3] = system: KP4 cells; assay: Seahorse analysis of OCR and ECAR, KP4 cells; type: cell-based, human; conditions: 1b 15 µM; for Effect on ECAR (extracellular acidification rate): metformin; for Effect on oxygen consumption rate (OCR): metformin 5 mM
# Excerpt: Figure 3 Effects of biguanides on cell proliferation and viability in pancreatic cancer cells. […]. […] | decimal sign comma or point
# Next, we used the Seahorse analyser to quantify the ability of compound 1b to affect oxygen consumption rate (OCR) in KP4 cells. […]. […] […].
# (§1) All chemicals were purchased from Aldrich Chemicals in their highest purity and used without further purification. Deuterated dimethylsulfoxide (DMSO-d^6) and deuterated chloroform (CDCl3) were purchased from CDN Isotopes. NMR spectra were recorded on Bruker advance 400 and 100 spectrometers. Coupling constants are given in hertz (Hz) and chemical shifts are given in parts per million (ppm, δ) measured relative to the residual solvent (the multiplicity of the signals are given as s: singlet, d: doublet, t: triplet, and m: multiplet). High-resolution mass spectra (HRMS) were recorded on a TSQ Quantum Ultra (Thermo Scientific) triple quadrupole with accurate mass option instrument (Université de Montréal Mass Spectrometry Facility). MS experiences were performed using an UltrafleXtreme MALDI TOF/TOF mass spectrometer equipped with a SmartBeam II Nd:Yag/355 nm laser operating at 1 kHz and providing a laser focus down to 20 μm in diameter (Bruker Daltonics, Billerica, MA). The data acquisition for MS was performed in positive ion mode using the linear geometry with flexControl 3.4 (Bruker Daltonics, Billerica, MA). Acceleration voltage was set to + 25 kV and all other instrumental parameters (delayed extraction parameters, source voltages, detector gain, laser energy, etc.) were optimized for maximum S/N for the drug compounds. L-α-Phosphatidylcholine was purchased from Avanti Polar Lipids. Transport and depolarization studies as well as absorbance measurements were performed on a Varian Cary Eclipse fluorescence spectrophotometer. The hemolysis assays were performed on a Fluostar Optima plate reader. Single crystals of C18H18F3N5O3S were obtained from chloroform. A suitable crystal was selected and analysed on a Bruker Venture Metaljet diffractometer. Crystal violet retention assay was used for cell growth assays and IC50 were determined using Prism (GraphPad). NAD/NADH quantitation colorimetric kit (#K337-100) from Biovision was used according to manufacturer’s instructions. ECAR (extracellular acidification rate) and OCR of KP4 cells (oxygen consumption rate) were measured on a Seahorse XF-24 (Agilent).
# Experimental. ECAR (extracellular acidification rate) and OCR of KP4 cells (oxygen consumption rate) were measured on a Seahorse XF-24 (Agilent). The day before the experiment, KP4 cells were seeded in XF24 FluxPak seahorse plates (Agilent) at a density of 40.000 cells per well, in usual KP4 culture medium (DMEM, 10% FSB). […]
# [4] = system: Panc1 cells; assay: Growth assay (crystal violet), Panc1 cells; type: cell-based; conditions: Homo sapiens, PANC-1, 72 h
# [5] = system: KP4 cells; assay: Mitochondrial morphology by anti-TOMM20 immunofluorescence, KP4 cells; type: cell-based, human; conditions: 24 h, 1b 15µM, metformin 5mM
# Protocol: The action of biguanides in mitochondria can lead to morphological alterations that include disorganisation of the cristae. […].  Figure 4 Effects of biguanides on mitochondrial morphology. (A) Mitochondrial morphology in KP4 cells 24 h following the indicated treatments as visualised by anti-TOMM20 immunofluorescence. Scale bar = […]. […] The data represents the mean of 2 biological replicates and for each replicate three counts of 50 cells were done. n = 300 cells per treatment. Data was analyzed with one way ANOVA followed by Tukey HSD test.
# Experimental. KP-4 cells were seeded at 50% confluency on slides in 6-well plates. […] After 24h of treatment, cells were washed twice with PBS1X then were fixed during 10 minutes at 4°C with 4% paraformaldehyde. Cells were washed again three times with PBS1X then permeabilized during 5 min in PBS1X, 2%BSA, 0,2%Triton X-100. Slides were washed three times 10 minutes with 1XPBS, 2%BSA, then incubated overnight with primary antibody anti-TOMM20 (Rabbit, 1:150, Santa Cruz, sc-11415) diluted in 1XPBS, 2%BSA. Slides were washed three times 10 minutes with 1XPBS, 2%BSA then incubated 1 hour at RT with anti-Rabbit-AlexaFluor568 secondary antibody (Goat, 1:1000, ThermoFisher Scientific). Cells were washed four times 10 minutes with 1XPBS then mounted with Vectashield mouting media containing DAPI (Vector laboratories H-1200). […]
# [6] = system: NAD+/NADH ratio in KP4 cells; assay: NAD/NADH quantification, KP4 cells; type: cell-based, human
# Protocol: as §1, with “MS experiences were performed using an UltrafleXtreme MALDI TOF/TOF mass spectrometer equipped with a SmartBeam II Nd:Yag/355 nm laser operating at 1 kHz and providing a laser focus down to 20 μm in diameter (Bruker Daltonics, Billerica, MA). The data acquisition for MS was performed in positive ion mode using the linear geometry with flexControl 3.4 (Bruker Daltonics, Billerica, MA). Acceleration voltage was set to + 25 kV and all other instrumental parameters (delayed extraction parameters, source voltages, detector gain, laser energy, etc.) were optimized for maximum S/N for the drug compounds. L-α-Phosphatidylcholine was purchased from Avanti Polar Lipids.” left out, “Single crystals of C18H18F3N5O3S were obtained from chloroform.” left out, “(Agilent). […]” for “(Agilent).”
Structure (SMILES),Decrease of the number of AH375 spheres ([1]; 1 mM) [%],Crossing to the trans-aqueous side of the U-tube (in words) [2],Effect on ECAR (extracellular acidification rate) [3],Effect on oxygen consumption rate (OCR) [3],IC50 [4] [µM],Effect on mitochondrial morphology [5],Decrease of the number of AH375 spheres ([1]; 5 µM) [%],"Trans-side concentration, mean ([2]; 48h)","Trans-side concentration, single replicates ([2]; 48h)","Trans-side concentration, mean ([2]; 72h)","Trans-side concentration, single replicates ([2]; 72h)","Decrease of NAD+/NADH ratio ([6]; KP4 cells, 15 µM, 18 h) [%]","Fold lower concentration than metformin for AMPK activation, decrease of NAD+/NADH ratio and mitochondrial respiration ([6]; abstract) [fold]"
"CN(C)C(=N)NC(=N)N [metformin, 1,1-dimethylbiguanide, reference compound]",50,only traces,increase of the ECAR,Inhibition of OCR,~5000,loss of the filamentous mitochondrial network,–,–,–,–,–,–,–
"N=C(N)NC(=N)NCc1ccc(C#Cc2ccccc2)cc1 [1b, 4-(phenylethynyl)benzylbiguanide]",–,able to partition rapidly into the chloroform and cross to the trans-aqueous side,also observed with compound 1b,inhibited OCR,15,punctuated pattern typical of fragmented mitochondria,75,"64,7 µM","90,1 µM and 57,1 µM and 46,8 µM","92,3 µM","78,6 µM and 99,3 µM and 99,1 µM",40,800
